Test results: US11026910B2, “α- and γ-truxillic acid derivatives and pharmaceutical compositions thereof” (The Research Foundation for The State University of New York, priority 2012, dated 2021)
Entries after “also recorded” stand apart in the source; their conditions may differ.

How the values were obtained:
[1] = tested on: male C57Bl6 mice; test: Carrageenan-induced paw edema and thermal hyperalgesia; type: in vivo
Experimental: We used male C57Bl6 mice (22-30 g, Taconic Farms) for all experiments. The animals were group housed at room temperature and kept on a 12:12 hour light:dark cycle with ad libitum access to water and food. The animals were habituated to the experimental room for one week before testing. All experiments were approved by the Stony Brook University Institutional Animal Care and Use Committee. The experimenter was blinded to the treatment conditions of each animal.
Paw edema was induced by injecting 1% λ-carrageenan (20 μl, in sterile saline) into the plantar surface of the left hind paw and a control solution of saline into the right hind paw using a 27 gauge needle. Paw diameters were measured before carrageenan injection and 4 hours after injection using digital electronic calipers (Fisher) and expressed to the nearest ±0.01 mm. […] The cannabinoid receptor antagonists, rimonabant and SR144528 (3 mg/kg, i.p.), in ethanol:emulphor:saline (1:1:18), were injected 15 min before the FABP inhibitor. Edema is reported as the change in paw diameter at 4 hr over the baseline. Changes in paw diameter of saline-injected contralateral paws were negligible. Thermal hyperalgesia measured the latency to withdraw the paw from a focused beam of radiant heat applied to the plantar surface of the hind paw using a Hargreaves plantar apparatus (Ugo Basile) set at an intensity of 3.0. For each mouse, the average latencies consisted of three trials spaced at least 5 minutes apart. The mice were habituated to the test chamber for 30 min. The cutoff time was set at 30 sec.
Behavioral data are presented as means±S.E.M. for the vehicle and inhibitor-treated groups, each consisting of at least 6 animals. Statistical significance between vehicle and inhibitor groups was determined using unpaired t-tests or one-way ANOVA followed by Dunnett's post hoc analysis. In all cases, differences of p<0.05 were considered significant.

[2] = tested on: dorsal raphe (DR) serotonin (5-HT) neurons; test: Patch-clamp electrophysiology in brain slices, glutamate-mediated EPSCs; type: cell-based
Experimental: Whole-cell-voltage clamp recordings of dorsal raphe (DR) serotonin (5-HT) neurons were performed as previously described. Briefly, DR neurons were visualized using an upright microscope (BX 51 WI, Olympus, Tokyo, Japan) equipped with a differential interference contrast and infrared imaging system. Somatic recordings from DR neurons were obtained with path electrodes ([…]) back-filled with potassium gluconate based internal solution of the following composition: 120 mM potassium gluconate, 10 mM KCl, 10 mM Na2-phosphocreatine, 10 mM HEPES, 1 mM MgCl2, 1 mM EGTA, 2 mM Na2-ATP, 0.25 mM Na-GTP, pH 7.3 (Adjusted with KOH; Osmolarity, 280 to 290 mOsmol/l). All the recordings were conducted in the presence of GABAA receptor antagonist picrotoxin (100 μM). Excitatory postsynaptic currents (EPSCs) were evoked with a single square stimulus (intensity, 1 to 10 V, duration, 100 to 200 μs) delivered via a glass stimulating electrode. […]
The amplitude of EPSCs was determined by measuring the average current during a 2-ms period at the peak of each EPSC and subtracted from the baseline current determined during a 5-ms time window before the stimulus. All EPSC amplitudes were normalized to the mean baseline amplitude recorded for at least 10 min before drug application. […]

O=C(O)[C@H]1[C@@H](c2ccccc2)[C@@H](C(=O)Oc2cccc3ccccc23)[C@@H]1c1ccccc1 (single isomer, unassigned) [Compound 26, α-2,4-diphenyl-cyclobutane-1,3-dicarboxylic Acid mono-(1-naphthol) Ester]
antinociceptive and anti-edematous effects after rimonabant and SR144528 pretreatment ([1]; 20 mg/kg i.p., antagonists 3 mg/kg i.p. 15 min before): completely reversed; also recorded: blocked
carrageenan-induced paw edema, 24 hrs after inhibitor administration ([1]; 20 mg/kg, i.p. (FIG. 16A)): reduced
carrageenan-induced thermal hyperalgesia, 24 hrs after inhibitor administration ([1]; 20 mg/kg, i.p. (FIG. 16A)): reduced
carrageenan-induced thermal hyperalgesia ([1]; 20 mg/kg, i.p., 45 min prior to carrageenan (FIG. 10B)): significantly reduced; also recorded: alleviates
carrageenan-induced paw edema ([1]; 20 mg/kg, i.p., paw diameter at 4 hr (FIG. 10C)): significantly reduced; also recorded: reduces
amplitude of EPSCs ([2]; bath application 10 μM, n=8): 107±6.7 % of baseline
agonist properties at CB1 receptors ([2]; concluded from EPSC amplitude, 10 μM): is not a CB1 receptor agonist
